What was measured:
Type in all cases: cell-based
[1] = target: T1, ρ2 GABAC receptor (Homo sapiens, UniProt P28476); test: two-electrode voltage clamp in Xenopus oocytes, shift of GABA concentration-response curve; conditions: read-out: Kd
T1 construct: gene GABRR2; human recombinant ρ2 GABAC receptors expressed in Xenopus oocytes

[2] = target: T2, α5β2γ2 GABAA receptor (Homo sapiens, UniProt P31644+P47870); test: two-electrode voltage clamp in Xenopus oocytes, % inhibition of GABA ([…]) current at […]
T2 construct: gene GABRA5; α5β2γ2 receptors expressed in Xenopus oocytes; with β2 and γ2 GABAA subunits

[3] = target: T1, ρ2 GABAC receptor; test: two-electrode voltage clamp in Xenopus oocytes, agonist dose-response

T1 sequence (P28476 21-465): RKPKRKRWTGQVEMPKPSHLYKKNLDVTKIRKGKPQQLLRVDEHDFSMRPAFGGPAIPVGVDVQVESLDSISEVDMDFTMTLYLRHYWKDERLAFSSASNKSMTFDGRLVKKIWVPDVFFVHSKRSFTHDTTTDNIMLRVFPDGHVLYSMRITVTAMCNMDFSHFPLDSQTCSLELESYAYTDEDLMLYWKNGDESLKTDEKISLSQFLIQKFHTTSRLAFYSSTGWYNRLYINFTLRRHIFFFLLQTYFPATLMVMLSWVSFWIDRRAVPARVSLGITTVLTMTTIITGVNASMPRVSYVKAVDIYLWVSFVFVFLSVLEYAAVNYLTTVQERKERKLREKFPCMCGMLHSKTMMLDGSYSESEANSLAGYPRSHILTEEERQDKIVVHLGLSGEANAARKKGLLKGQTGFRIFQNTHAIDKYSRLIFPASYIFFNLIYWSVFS
T2 sequence (P47870 26-512): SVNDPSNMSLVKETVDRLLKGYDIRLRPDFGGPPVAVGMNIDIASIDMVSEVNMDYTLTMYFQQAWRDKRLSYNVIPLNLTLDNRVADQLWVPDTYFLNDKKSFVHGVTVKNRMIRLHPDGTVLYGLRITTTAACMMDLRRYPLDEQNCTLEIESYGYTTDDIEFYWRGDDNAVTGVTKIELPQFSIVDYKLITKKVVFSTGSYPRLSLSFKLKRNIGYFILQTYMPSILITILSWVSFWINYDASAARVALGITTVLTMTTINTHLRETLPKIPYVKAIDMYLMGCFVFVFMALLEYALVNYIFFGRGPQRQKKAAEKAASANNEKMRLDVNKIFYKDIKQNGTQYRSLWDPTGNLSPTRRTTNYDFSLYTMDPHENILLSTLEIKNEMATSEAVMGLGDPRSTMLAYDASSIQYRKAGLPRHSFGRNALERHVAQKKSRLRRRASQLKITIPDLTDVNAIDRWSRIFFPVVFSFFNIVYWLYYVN
T2 sequence (P18507 40-475, further chain): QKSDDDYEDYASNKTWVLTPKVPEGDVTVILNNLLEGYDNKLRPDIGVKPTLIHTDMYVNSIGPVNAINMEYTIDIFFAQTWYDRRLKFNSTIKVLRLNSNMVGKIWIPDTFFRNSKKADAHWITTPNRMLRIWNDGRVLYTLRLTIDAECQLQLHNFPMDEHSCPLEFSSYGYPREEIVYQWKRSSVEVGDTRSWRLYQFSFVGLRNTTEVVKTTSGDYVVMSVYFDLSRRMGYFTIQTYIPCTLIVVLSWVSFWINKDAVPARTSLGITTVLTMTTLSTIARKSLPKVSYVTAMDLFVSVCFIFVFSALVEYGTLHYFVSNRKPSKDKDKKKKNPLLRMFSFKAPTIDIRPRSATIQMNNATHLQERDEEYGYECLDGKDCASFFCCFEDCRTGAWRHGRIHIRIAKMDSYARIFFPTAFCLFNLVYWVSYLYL
T2 sequence (P31644 32-462): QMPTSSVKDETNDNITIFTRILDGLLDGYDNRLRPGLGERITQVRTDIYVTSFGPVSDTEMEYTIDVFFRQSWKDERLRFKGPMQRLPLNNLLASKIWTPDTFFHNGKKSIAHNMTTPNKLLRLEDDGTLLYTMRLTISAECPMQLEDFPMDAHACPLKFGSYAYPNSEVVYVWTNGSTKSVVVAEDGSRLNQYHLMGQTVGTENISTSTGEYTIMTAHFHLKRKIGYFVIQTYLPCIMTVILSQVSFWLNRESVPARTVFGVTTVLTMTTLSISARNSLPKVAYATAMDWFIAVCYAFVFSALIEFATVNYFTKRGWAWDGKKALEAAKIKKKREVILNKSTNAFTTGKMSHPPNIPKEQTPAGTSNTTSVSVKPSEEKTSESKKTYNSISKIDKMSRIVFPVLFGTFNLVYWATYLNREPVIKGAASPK

| Compound | Kb [1] [µM] | inhibition at 100 µM [2] [%] | EC50 [3] |
| --- | --- | --- | --- |
| CCCCP(=O)(O)C1=CC[C@@H](N)C1 [(R)-4-ACPBPA, (R)-4-amino-cyclopent-1-enyl butylphosphinic acid] | 6 | 36 ± 2 |  |
| CCCCP(=O)(O)C1=CC[C@H](N)C1 [(S)-4-ACPBPA, (S)-4-amino-cyclopent-1-enyl butylphosphinic acid] | 10.5 | 37 ± 1.5 |  |
| NCCCC(=O)O [GABA, γ-aminobutyric acid] |  |  | ~ 1 µM |
